Experimental data from US8940909B2, “Indicator platform” (Biosynth AG, priority 2009, dated 2015).

Key:
Experiment in all cases: IO staining of colonies of beta-D-galactosidase positive/negative bacteria (Table IVb)
Type in all cases: cell-based
Aeromonas hydrophila 292 = details: Aeromonas hydrophila strain 292, b-gal +; 24 h on Nutrient Agar, 150 mg/l indicator, 100 mg/l IPTG
Citrobacter freundii 181 = details: Citrobacter freundii strain 181, b-gal +; 24 h on Nutrient Agar, 150 mg/l indicator, 100 mg/l IPTG
[1] = system: Enterobacter aerogenes 242; details: Enterobacter aerogenes strain 242, b-gal +; 24 h on Nutrient Agar, 150 mg/l indicator, 100 mg/l IPTG; on C: Color of colonies: key: −: absent; +/−: weak; +: strong; ++: very strong; on G: Growth of colonies: key: −: absent; +/−: weak; +: strong; ++: very strong
[2] = system: Escherichia coli (O157:H7) 60; details: Escherichia coli (O157:H7) strain 60, b-gal +; 24 h on Nutrient Agar, 150 mg/l indicator, 100 mg/l IPTG
Escherichia coli 61 = details: Escherichia coli strain 61, b-gal +; 24 h on Nutrient Agar, 150 mg/l indicator, 100 mg/l IPTG
Escherichia coli 270 = details: Escherichia coli strain 270, b-gal +; 24 h on Nutrient Agar, 150 mg/l indicator, 100 mg/l IPTG
[3] = system: Klebsiella pneumoniae 164; details: Klebsiella pneumoniae strain 164, b-gal +; 24 h on Nutrient Agar, 150 mg/l indicator, 100 mg/l IPTG; on C: Color of colonies: key: −: absent; +/−: weak; +: strong; ++: very strong; on G: Growth of colonies: key: −: absent; +/−: weak; +: strong; ++: very strong
Serratia marcescens 40 = details: Serratia marcescens strain 40, b-gal +; 24 h on Nutrient Agar, 150 mg/l indicator, 100 mg/l IPTG
[4] = system: Staphylococcus intermedius 31; details: Staphylococcus intermedius strain 31, b-gal +; 24 h on Nutrient Agar, 150 mg/l indicator, 100 mg/l IPTG
[5] = system: Staphylococcus saprophyticus 273; details: Staphylococcus saprophyticus strain 273, b-gal +; 24 h on Nutrient Agar, 150 mg/l indicator, 100 mg/l IPTG; on G: Growth of colonies: key: −: absent; +/−: weak; +: strong; ++: very strong
Salmonella bongori 81 = details: Salmonella bongori strain 81, b-gal +; 24 h on Nutrient Agar, 150 mg/l indicator, 100 mg/l IPTG
Salmonella illa 73 = details: Salmonella illa strain 73, b-gal +; 24 h on Nutrient Agar, 150 mg/l indicator, 100 mg/l IPTG
[6] = system: Shigella dysenteriae Serovar 1 131; details: Shigella dysenteriae Serovar 1 strain 131, b-gal +/−; 24 h on Nutrient Agar, 150 mg/l indicator, 100 mg/l IPTG
Shigella sonnei 133 = details: Shigella sonnei strain 133, b-gal +/−; 24 h on Nutrient Agar, 150 mg/l indicator, 100 mg/l IPTG
[7] = system: Yersinia enterocolitica 175; details: Yersinia enterocolitica strain 175, b-gal +/−; 24 h on Nutrient Agar, 150 mg/l indicator, 100 mg/l IPTG; on G: Growth of colonies: key: −: absent; +/−: weak; +: strong; ++: very strong
[8] = system: Salmonella enteritidis 43; details: Salmonella enteritidis strain 43, b-gal −; 24 h on Nutrient Agar, 150 mg/l indicator, 100 mg/l IPTG; further: key: −: absent; +/−: weak; +: strong; ++: very strong
Bacillus subtilis 65 = details: Bacillus subtilis strain 65, b-gal −; 24 h on Nutrient Agar, 150 mg/l indicator, 100 mg/l IPTG
[9] = system: Listeria monocytogenes (4b) 290; details: Listeria monocytogenes (4b) strain 290, b-gal −; 24 h on Nutrient Agar, 150 mg/l indicator, 100 mg/l IPTG; on C: Color of colonies: key: −: absent; +/−: weak; +: strong; ++: very strong; on F: Fluorescence of colonies: key: −: absent; +/−: weak; +: strong; ++: very strong
[10] = system: Pseudomonas aeruginosa 168; details: Pseudomonas aeruginosa strain 168, b-gal −, 24 h on Nutrient Agar, 150 mg/l indicator, 100 mg/l IPTG; for F: Fluorescence of colonies: footnote 1: blue autofluorescence; on C: Color of colonies: key: −: absent; +/−: weak; +: strong; ++: very strong; on G: Growth of colonies: key: −: absent; +/−: weak; +: strong; ++: very strong
Staphylococcus aureus 2 = details: Staphylococcus aureus strain 2, b-gal −, 24 h on Nutrient Agar, 150 mg/l indicator, 100 mg/l IPTG; for C: Color of colonies: footnote 2: S. aureus natural color
[11] = system: Streptococcus agalactiae 195; details: Streptococcus agalactiae strain 195, b-gal −; 24 h on Nutrient Agar, 150 mg/l indicator, 100 mg/l IPTG; on C: Color of colonies: key: −: absent; +/−: weak; +: strong; ++: very strong; on F: Fluorescence of colonies: key: −: absent; +/−: weak; +: strong; ++: very strong

5-Bromo-4-chloro-1H-indol-3-yl-beta-D-galactopyranoside [Indicator I4a, reference compound]
+: C: Color of colonies (Aeromonas hydrophila 292) | G: Growth of colonies (Aeromonas hydrophila 292) | C: Color of colonies (Citrobacter freundii 181) | G: Growth of colonies (Citrobacter freundii 181) | G: Growth of colonies [1] | G: Growth of colonies [2] | G: Growth of colonies (Escherichia coli 61) | G: Growth of colonies (Escherichia coli 270) | G: Growth of colonies [3] | C: Color of colonies (Serratia marcescens 40) | G: Growth of colonies (Serratia marcescens 40) | C: Color of colonies [4] | G: Growth of colonies [4] | C: Color of colonies [5] | G: Growth of colonies [5] | G: Growth of colonies (Salmonella bongori 81) | G: Growth of colonies (Salmonella illa 73) | G: Growth of colonies [6] | C: Color of colonies (Shigella sonnei 133) | G: Growth of colonies (Shigella sonnei 133) | G: Growth of colonies [7] | G: Growth of colonies [8] | G: Growth of colonies (Bacillus subtilis 65) | G: Growth of colonies [10] | G: Growth of colonies (Staphylococcus aureus 2)
−: F: Fluorescence of colonies (Aeromonas hydrophila 292) | F: Fluorescence of colonies (Citrobacter freundii 181) | F: Fluorescence of colonies [1] | F: Fluorescence of colonies [2] | F: Fluorescence of colonies (Escherichia coli 61) | F: Fluorescence of colonies (Escherichia coli 270) | F: Fluorescence of colonies [3] | F: Fluorescence of colonies (Serratia marcescens 40) | F: Fluorescence of colonies [4] | F: Fluorescence of colonies [5] | F: Fluorescence of colonies (Salmonella bongori 81) | C: Color of colonies (Salmonella illa 73) | F: Fluorescence of colonies (Salmonella illa 73) | C: Color of colonies [6] | F: Fluorescence of colonies [6] | F: Fluorescence of colonies (Shigella sonnei 133) | C: Color of colonies [7] | F: Fluorescence of colonies [7] | C: Color of colonies [8] | F: Fluorescence of colonies [8] | C: Color of colonies (Bacillus subtilis 65) | F: Fluorescence of colonies (Bacillus subtilis 65) | C: Color of colonies [9] | F: Fluorescence of colonies [9] | C: Color of colonies [10] | F: Fluorescence of colonies (Staphylococcus aureus 2) | C: Color of colonies [11] | F: Fluorescence of colonies [11]
+^1: F: Fluorescence of colonies [10]
y^2: C: Color of colonies (Staphylococcus aureus 2)
++: C: Color of colonies [1] | C: Color of colonies [2] | C: Color of colonies (Escherichia coli 61) | C: Color of colonies (Escherichia coli 270) | C: Color of colonies [3]
+/−: C: Color of colonies (Salmonella bongori 81) | G: Growth of colonies [9] | G: Growth of colonies [11]

O=C(c1ccccc1)c1ccccc1-n1cc(O[C@@H]2O[C@H](CO)[C@H](O)[C@H](O)[C@H]2O)c2ccc(Cl)cc21 [Indicator I21a, 1-(2-Benzoylphenyl)-6-chloro-1H-indol-3-yl-beta-D-galactopyranoside]
+^1: F: Fluorescence of colonies [10]
++: C: Color of colonies (Escherichia coli 270) | C: Color of colonies (Serratia marcescens 40)
−: C: Color of colonies (Salmonella illa 73) | F: Fluorescence of colonies (Salmonella illa 73) | C: Color of colonies [6] | F: Fluorescence of colonies [6] | C: Color of colonies [7] | C: Color of colonies [8] | F: Fluorescence of colonies [8] | C: Color of colonies (Bacillus subtilis 65) | F: Fluorescence of colonies (Bacillus subtilis 65) | C: Color of colonies [9] | F: Fluorescence of colonies [9] | C: Color of colonies [10] | F: Fluorescence of colonies (Staphylococcus aureus 2) | C: Color of colonies (Staphylococcus aureus 2) | C: Color of colonies [11] | F: Fluorescence of colonies [11]
+: C: Color of colonies (Aeromonas hydrophila 292) | F: Fluorescence of colonies (Aeromonas hydrophila 292) | G: Growth of colonies (Aeromonas hydrophila 292) | C: Color of colonies (Citrobacter freundii 181) | F: Fluorescence of colonies (Citrobacter freundii 181) | G: Growth of colonies (Citrobacter freundii 181) | C: Color of colonies [1] | F: Fluorescence of colonies [1] | G: Growth of colonies [1] | C: Color of colonies [2] | F: Fluorescence of colonies [2] | G: Growth of colonies [2] | C: Color of colonies (Escherichia coli 61) | F: Fluorescence of colonies (Escherichia coli 61) | G: Growth of colonies (Escherichia coli 61) | F: Fluorescence of colonies (Escherichia coli 270) | G: Growth of colonies (Escherichia coli 270) | C: Color of colonies [3] | F: Fluorescence of colonies [3] | G: Growth of colonies [3] | F: Fluorescence of colonies (Serratia marcescens 40) | G: Growth of colonies (Serratia marcescens 40) | C: Color of colonies [5] | F: Fluorescence of colonies [5] | G: Growth of colonies [5] | G: Growth of colonies (Salmonella bongori 81) | G: Growth of colonies (Salmonella illa 73) | G: Growth of colonies [6] | C: Color of colonies (Shigella sonnei 133) | F: Fluorescence of colonies (Shigella sonnei 133) | G: Growth of colonies (Shigella sonnei 133) | G: Growth of colonies [7] | G: Growth of colonies [8] | G: Growth of colonies [10]
+/−: C: Color of colonies [4] | F: Fluorescence of colonies [4] | G: Growth of colonies [4] | C: Color of colonies (Salmonella bongori 81) | F: Fluorescence of colonies (Salmonella bongori 81) | F: Fluorescence of colonies [7] | G: Growth of colonies (Bacillus subtilis 65) | G: Growth of colonies [9] | G: Growth of colonies (Staphylococcus aureus 2) | G: Growth of colonies [11]
